PubChem BioAssay (NCI)
Values joined by “and” are separate entries in the source; they are usually repeats but may differ in a detail not shown here. Equal values may be shown once.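 Cultured in 96-well plates, cells were exposed to test compound for 48 hours across five concentrations. GI50 = concentration required for 50% inhibition of growth. TGI: total growth inhibition.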

How the values were obtained:
Test in all cases: growth of human tumour cells (NCI), 48 h
[1] = tested on: MDA-MB-468 breast
[2] = tested on: 786-0 renal
[3] = tested on: A498 renal
[4] = tested on: A549 NSCLC
[5] = tested on: ACHN renal
[6] = tested on: BT-549 breast
[7] = tested on: CAKI-1 renal
[8] = tested on: CCRF-CEM leukemia
[9] = tested on: COLO 205 colon
[10] = tested on: DU-145 prostate
[11] = tested on: EKVX NSCLC
[12] = tested on: HCC-2998 colon
[13] = tested on: HCT-116 colon
[14] = tested on: HCT-15 colon
[15] = tested on: HL-60(TB) leukemia
[16] = tested on: HOP-62 NSCLC
[17] = tested on: HOP-92 NSCLC
[18] = tested on: HS 578T breast
[19] = tested on: HT29 colon
[20] = tested on: IGROV1 ovarian
[21] = tested on: K-562 leukemia
[22] = tested on: KM12 colon
[23] = tested on: LOX IMVI melanoma
[24] = tested on: M14 melanoma
[25] = tested on: MALME-3M melanoma
[26] = tested on: MCF7 breast
[27] = tested on: MDA-MB-231 breast
[28] = tested on: MDA-MB-435
[29] = tested on: MOLT-4 leukemia
[30] = tested on: NCI-H226 lung
[31] = tested on: NCI-H23 lung
[32] = tested on: NCI-H460 lung
[33] = tested on: NCI-H522 lung
[34] = tested on: OVCAR-3 ovarian
[35] = tested on: OVCAR-4 ovarian
[36] = tested on: OVCAR-5 ovarian
[37] = tested on: OVCAR-8 ovarian
[38] = tested on: PC-3 prostate
[39] = tested on: RPMI-8226 leukemia
[40] = tested on: RXF 393 renal
[41] = tested on: SF-268 CNS
[42] = tested on: SF-295 CNS
[43] = tested on: SF-539 CNS
[44] = tested on: SK-MEL-2 melanoma
[45] = tested on: SK-MEL-28 melanoma
[46] = tested on: SK-MEL-5 melanoma
[47] = tested on: SK-OV-3 ovarian
[48] = tested on: SN12C renal
[49] = tested on: SNB-19 CNS
[50] = tested on: SNB-75 CNS
[51] = tested on: SR leukemia
[52] = tested on: SW-620 colon
[53] = tested on: T-47D breast
[54] = tested on: TK-10 renal
[55] = tested on: U251 CNS
[56] = tested on: UACC-257 melanoma
[57] = tested on: UACC-62 melanoma
[58] = tested on: UO-31 renal

CCCC(=O)OCC1OC(n2cnc3c(=S)nc(N)[nH]c32)C(OC(=O)CCC)C1OC(=O)CCC (stereo not given)
GI50 [1]: 0.332 µM | TGI [1]: 2.67 µM

COc1cc2c(cc1O)CC[C@@H]1[C@@H]2CC[C@]2(C)[C@@H](OCCCN(C)C)CC[C@@H]12
GI50 [1]: 0.12 µM | TGI [1]: 0.3 µM

O=S(=O)(Nc1ccc(Cl)c(F)c1)c1ccc(-c2cnc(C3CC3)o2)cc1
GI50 [1]: 0.187 µM | TGI [1]: 0.998 µM

COc1ccc2c(c1)O/C(=C\c1ncc([N+](=O)[O-])n1C)C2=O
GI50 [1]: 1.33 µM | TGI [1]: 3.72 µM

COc1cc(-c2nn(-c3ccc(NC(=O)NCCNS(=O)(=O)c4ccc(F)cc4)cc3)cc2-c2ccncc2)ccc1Cl
GI50 [1]: 0.323 µM | TGI [1]: 1.28 µM

CN1CCN(Cc2ccc(NC(=O)c3cncc(C#Cc4cnc5ccc(O[C@H]6CCOC6)nn45)c3)cc2C(F)(F)F)CC1
GI50 [1]: 0.75 µM | TGI [1]: 1.69 µM

Nc1ccccc1NC(=O)c1ccc(CNC(=O)OCc2cccnc2)cc1
GI50 [1]: 0.412 µM | TGI [1]: 2.05 µM

O=C1Nc2ccc(Cl)cc2/C1=C/c1cccc(OCc2ccccc2)c1
GI50 [2]: 14.1 µM | TGI [2]: 32.6 µM | GI50 [3]: 38 µM | TGI [3]: > 100 µM | GI50 [4]: 18.3 µM | TGI [4]: > 100 µM | GI50 [5]: 15 µM | TGI [5]: 37.3 µM | GI50 [6]: 14.3 µM | TGI [6]: 66.1 µM | GI50 [7]: 10.8 µM | TGI [7]: 32 µM | GI50 [8]: 11.2 µM | TGI [8]: 32.1 µM | GI50 [9]: 37.4 µM | TGI [9]: > 100 µM | GI50 [10]: 17 µM | TGI [10]: 45.3 µM | GI50 [11]: 20.5 µM | TGI [11]: > 100 µM | GI50 [12]: 41.2 µM | TGI [12]: > 100 µM | GI50 [13]: 10.7 µM | TGI [13]: > 100 µM | GI50 [14]: 9.4 µM | TGI [14]: 94.6 µM | GI50 [15]: 13.3 µM | TGI [15]: 57.8 µM | GI50 [16]: 25.6 µM | TGI [16]: 79.8 µM | GI50 [17]: 2.16 µM | TGI [17]: 13.4 µM | GI50 [18]: 16 µM | TGI [18]: 72.9 µM | GI50 [19]: 37.8 µM | TGI [19]: > 100 µM | GI50 [20]: 12.3 µM | TGI [20]: 61.2 µM | GI50 [21]: 11 µM | TGI [21]: 37.8 µM | GI50 [22]: 20.1 µM | TGI [22]: > 100 µM | GI50 [23]: 10.2 µM | TGI [23]: 40.4 µM | GI50 [24]: 19.5 µM | TGI [24]: > 100 µM | GI50 [25]: 21.1 µM | TGI [25]: 64.7 µM | GI50 [26]: 3.9 µM | TGI [26]: 75.1 µM | GI50 [27]: 15.3 µM | TGI [27]: 37.9 µM | GI50 [28]: 24 µM | TGI [28]: 98.8 µM | GI50 [1]: 6.52 µM | TGI [1]: 67.5 µM | GI50 [29]: 4.96 µM | TGI [29]: 23.6 µM | GI50 [30]: 14.1 µM | TGI [30]: 84.6 µM | GI50 [31]: 22 µM | TGI [31]: > 100 µM | GI50 [32]: 14 µM | TGI [32]: 37.9 µM | GI50 [33]: 24 µM | TGI [33]: > 100 µM | GI50 [34]: 12.4 µM | TGI [34]: 31.7 µM | GI50 [35]: 11.8 µM | TGI [35]: 63.2 µM | GI50 [36]: 27.5 µM | TGI [36]: > 100 µM | GI50 [37]: 20.2 µM | TGI [37]: 61.8 µM | GI50 [38]: 14.9 µM | TGI [38]: 82 µM | GI50 [39]: 7.46 µM | TGI [39]: 36.7 µM | GI50 [40]: 18.4 µM | TGI [40]: 95.9 µM | GI50 [41]: 14.6 µM | TGI [41]: 49.4 µM | GI50 [42]: 37 µM | TGI [42]: > 100 µM | GI50 [43]: 18.5 µM | TGI [43]: 48.6 µM | GI50 [44]: 31.2 µM | TGI [44]: > 100 µM | GI50 [45]: 16.5 µM | TGI [45]: 44.3 µM | GI50 [46]: 28.1 µM | TGI [46]: > 100 µM | GI50 [47]: 59 µM | TGI [47]: > 100 µM | GI50 [48]: 20.5 µM | TGI [48]: 88.8 µM | GI50 [49]: 17.9 µM | TGI [49]: 58.8 µM | GI50 [50]: 16.7 µM | TGI [50]: 56 µM | GI50 [51]: 5.66 µM | TGI [51]: 21.8 µM | GI50 [52]: 19.9 µM | TGI [52]: 75.9 µM | GI50 [53]: 16.1 µM | TGI [53]: > 100 µM | GI50 [54]: 56.1 µM | TGI [54]: > 100 µM | GI50 [55]: 14.8 µM | TGI [55]: 55.4 µM | GI50 [56]: 53.8 µM | TGI [56]: > 100 µM | GI50 [57]: 8.87 µM | TGI [57]: 35.4 µM | GI50 [58]: 7.91 µM | TGI [58]: > 100 µM

CCN(Cc1ccccn1)c1ccc(CO)c(Cl)c1
GI50 [1]: 0.127 µM | TGI [1]: 0.331 µM

COc1cccc(/C=C2\COc3ccc(O)c(O)c3C2=O)c1
GI50 [1]: 1.15 µM | TGI [1]: 3.15 µM

C=CC(C)c1cccc(C=O)c1O (stereo not given)
GI50 [1]: 51.6 µM | TGI [1]: > 100 µM

C/C=C/C1=CN2C(=O)c3cc(OC4OC(C)C(NC)C(C)(O)C4O)c(C)cc3N=C[C@@H]2C1 (stereo not given in full)
GI50 [1]: 0.0107 µM | TGI [1]: 0.0282 µM

ClC(Cl)c1nc(-c2ccccc2)n2nc(-c3ccccc3)cc2n1
GI50 [1]: 0.287 µM | TGI [1]: 1.25 µM

N#C/C(=C1C=C/C(=N/O)C(Cl)=C/1)c1ccc(Cl)cc1
GI50 [1]: 3 µM | TGI [1]: 9.7 µM

O=C(Nc1ccc(F)cc1F)c1cc(F)ccc1O
GI50 [1]: 2.6 µM | TGI [1]: 7.88 µM

O=C1CCC/C=C\C[C@H]2C=CC(=O)/C2=C/C[C@H](CCc2cccc(C(F)(F)F)c2)O1
GI50 [1]: 1.69 µM | TGI [1]: 3.71 µM

O=C(NC1CCCCC1)OCc1c(COC(=O)NC2CCCCC2)c(-c2ccc(Cl)c(Cl)c2)n2c1CCC2
GI50 [1]: 1.8 µM | TGI [1]: 10.9 µM

C#C[C@@]1(O)[C@@H](CO)O[C@@H](n2cc(Br)c3c(N)ncnc32)[C@@H]1O
GI50 [1]: 0.115 µM | TGI [1]: 0.352 µM

Cc1ccc2cc3c(cc(C)c4ccccc43)c3c2c1CC3
GI50 [1]: > 100 µM | TGI [1]: > 100 µM

COc1ccc(C2=C(c3cn(C)c4ccccc34)C(=O)OC2)cc1OC
GI50 [1]: 1.65 µM | TGI [1]: > 100 µM

CN1C[C@@H](c2ccc(Cl)cc2)[C@]2(NC(=S)N(c3ccc(F)c(Cl)c3)C2=O)[C@@]12C(=O)NC1C=CC(Cl)=C[C@H]12 (stereo not given in full)
GI50 [1]: 3.38 µM | TGI [1]: 12.9 µM

CC(C)N(Cc1c(F)cccc1F)c1ccc(CO)c(Cl)c1
GI50 [1]: 0.0187 µM | TGI [1]: 0.0531 µM

O=C1CCc2c(Oc3ccc4c(c3)[C@H]3[C@@H](O4)[C@@H]3c3nc4ccc(C(F)(F)F)cc4[nH]3)ccnc2N1
GI50 [1]: 1.74 µM | TGI [1]: 7.13 µM

CC(C)C[C@@H](NC(=O)[C@@H](Cc1ccccc1)NC(=O)c1cnccn1)B1Oc2ccc(C[C@H](NC(=O)[C@H](Cc3ccc4c(c3)OB([C@@H](CC(C)C)NC(=O)[C@@H](Cc3ccccc3)NC(=O)c3cnccn3)O4)NC(=O)[C@@H](N)CC3CCC4OB([C@@H](CC(C)C)NC(=O)[C@@H](CC5CCCCC5)NC(=O)C5CNCCN5)OC4C3)C(=O)NCCCC[C@@H]3NC(=O)[C@@H](Cc4ccccc4)NC(=O)[C@H](CC(=O)O)NC(=O)CNC(=O)[C@H](CCCNC(=N)N)NC3=O)cc2O1 (stereo not given in full)
GI50 [1]: 0.00272 µM and < 0.0025 µM | TGI [1]: 0.00722 µM and < 0.0025 µM

COc1ccc(OC)c(/C=C/C(=O)N/N=C/c2ccccc2)c1
GI50 [1]: 1.96 µM | TGI [1]: 6.47 µM

CCn1nc(-c2ccc(C(=O)OC)cc2)nc2c(=O)n(C)c(=O)nc1-2
GI50 [1]: 0.189 µM | TGI [1]: 0.477 µM

O=c1nc(Nc2ccc([N+](=O)[O-])cc2O)sc2ccccc12
GI50 [1]: 0.34 µM | TGI [1]: 1.21 µM

Cc1ccc(-c2nc3nc(-c4ccc(Br)cc4)nc(N4CCCNCC4)c3o2)cc1
GI50 [1]: 3.98 µM | TGI [1]: 15.9 µM

COc1ccc(C(=O)c2cc(OC)c(OC)c(OC)c2)cc1OC(=O)C(Cl)(Cl)Cl
GI50 [1]: 0.542 µM

COC(=O)c1c(C)c2n(c1C)C(=O)C(c1ccccc1)=C2
GI50 [1]: 4.88 µM | TGI [1]: > 72.8 µM

NC(=O)c1c(Br)n(C2OC(CO)C(O)C2O)c2ncnc(N)c12 (stereo not given)
GI50 [1]: 0.437 µM | TGI [1]: 2.36 µM
